Data on 2 compounds can be found in patent US8299048B2, “Hexahydrocyclopentyl[f]indazole sulfonamides and derivatives thereof as selective glucocorticoid receptor modulators” (Merck Sharp & Dohme Corp., priority 2008, dated 2012).

The target in experiment [1] is T1, human GR (Homo sapiens, UniProt P04150).
T1 sequence (P04150 1-777): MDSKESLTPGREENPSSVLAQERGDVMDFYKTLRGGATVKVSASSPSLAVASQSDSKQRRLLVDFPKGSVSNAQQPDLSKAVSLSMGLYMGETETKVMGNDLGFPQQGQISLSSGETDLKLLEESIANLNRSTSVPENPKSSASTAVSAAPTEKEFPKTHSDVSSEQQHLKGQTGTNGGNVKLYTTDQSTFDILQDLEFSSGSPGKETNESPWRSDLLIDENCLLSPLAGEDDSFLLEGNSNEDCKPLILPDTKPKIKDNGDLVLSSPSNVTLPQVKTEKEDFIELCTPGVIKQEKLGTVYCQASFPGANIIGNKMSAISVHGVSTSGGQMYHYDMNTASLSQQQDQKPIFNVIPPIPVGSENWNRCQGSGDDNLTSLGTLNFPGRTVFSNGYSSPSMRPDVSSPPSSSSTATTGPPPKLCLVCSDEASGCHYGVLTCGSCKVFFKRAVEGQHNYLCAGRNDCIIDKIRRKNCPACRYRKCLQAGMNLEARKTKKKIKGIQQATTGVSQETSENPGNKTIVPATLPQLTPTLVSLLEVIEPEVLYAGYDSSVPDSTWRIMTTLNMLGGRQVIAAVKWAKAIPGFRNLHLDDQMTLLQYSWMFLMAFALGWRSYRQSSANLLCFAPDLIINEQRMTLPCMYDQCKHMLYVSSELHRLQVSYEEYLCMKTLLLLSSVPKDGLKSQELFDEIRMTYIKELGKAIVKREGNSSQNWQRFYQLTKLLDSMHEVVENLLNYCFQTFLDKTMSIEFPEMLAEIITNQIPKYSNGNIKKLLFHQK
The experiment is described as follows: Trans-Activation Modulation of Glucocorticoid Receptor (GRAMMER), MMTV-LUC reporter, agonist mode. The format is cell-based. The arrangement: endogenous in cells. The note with it: for Emax: A549, A549 cells, maximum activity, read-out: Transactivation A549 Cells GRAMMER Emax; for EC50: A549 cells, inflection point, read-out: Transactivation A549 Cells GRAMMER IP. Put shortly: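 Readout is luciferase from a modified MMTV LTR promoter after 24 h compound exposure alongside 10 nM dexamethasone (100% activity reference), DMSO ≤1%.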

Experiment [2] concerns the target T1, human GR. As to the kind of experiment: Transrepression Assay (GITAR), TNFα-β-lactamase reporter in U937 cells. It is filed as cell-based. Details: U937 cells contain an endogenous glucocorticoid receptor (GR); endogenous in cells; host or cells: U937 cells stably transfected with the TNF-alpha promoter/beta-lactamase reporter. The note with it: for GITAR > GRAMM % SEP: GITAR Emax minus GRAMMER Emax; for EC50: U937 cells, inflection point, read-out: Transrepression U937 Cells GITAR IP. The essentials: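 Repression normalised to 100 nM dexamethasone (100%), measured with CCF2-AM β-lactamase substrate after 70–90 min at room temperature. Stably transfected U937 cells were exposed to compound 30–45 min, then to PMA (5 ng/ml final) plus LPS (100 ng/ml final) overnight (~18 hr), 37° C.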

Where [3] appears, read: U-937, U937 cells, maximum activity, read-out: Transrepression U937 Cells GITAR Emax.
Setting [4] is: U-937, activity repressed by 100 nM dexamethasone alone set as 100%, read-out: maximal activity in the transrepression (GITAR) assay.

In the case of `C[C@]12Cc3cnn(-c4ccc(F)cc4)c3C=C1CC[C@@H]2CN(CC1(O)CC1)S(=O)(=O)c1ccccc1F` [Example 200, 2-fluoro-N-{[(4αR,5S)-1-(4-fluorophenyl)-4α-methyl-1,4,4α,5,6,7-hexahydrocyclopenta[f]indazol-5-yl]methyl}-N-[(1-hydroxycyclopropyl)methyl]benzenesulfonamide], the Emax is 57.5% on human GR [1], 85.9% on human GR [2] (setting [3]) and above 5% on human GR [2] (setting [4]). In addition, the values for the EC50 on human GR [1] and at human GR [2] were 47.9 nM and 308 nM, respectively. At human GR [2], the “GITAR > GRAMM % SEP” value came out at 28.4%.
As for `C[C@]12Cc3cnn(-c4ccc(F)cc4)c3C=C1CC[C@@H]2CN(CC1(O)CCCCC1)S(=O)(=O)c1ccccc1F` [Example 201, 2-fluoro-N-{[(4αR,5S)-1-(4-fluorophenyl)-4α-methyl-1,4,4α,5,6,7-hexahydrocyclopenta[f]indazol-5-yl]methyl}-N-[(1-hydroxycyclohexyl)methyl]benzenesulfonamide], the Emax on human GR [1] was 47.8%; on human GR [2] (setting [3]) it was 69.5%; on human GR [2] (setting [4]), above 5%. For the same compound, the EC50 at human GR [1] turned out to be 88.4 nM; on human GR [2], 486 nM. For the same compound, the “GITAR > GRAMM % SEP” value at human GR [2] was 21.7%.
